Measurements as given in US20200268702A1, “METHODS OF TREATING […]” (Amarin Pharmaceuticals Ireland Limited, priority 2013, published 2020).

Assay: Essential fatty acid parameters in plasma and RBC, 6-week AAMI study
Assay type: in vivo, human
Procedure: Blood samples (10 mL) were collected at Visit 1 (screening) and at Visits 4, 5 and 6. Analysis was performed by MSR Lipid Analysis, Scottish Crop Research Institute, Dundee, UK. The screening sample acted as baseline for the EFA measurements. Lipid was extracted from plasma, serum and RBC suspensions and converted into fatty acid methyl esters which were analyzed by gas chromatography to give fatty acid profiles as micrograms fatty acid per gram of sample (μgFA/g) and normalized area percent. RBC and plasma EFA data were collected at baseline, Day 14, 28 and 42 and summarized by visit for each treatment group. Change from baseline and percent change from baseline were also summarized. ANCOVA comparison of ethyl-EPA dose groups and ethyl-EPA versus placebo was performed.

CC/C=C\C/C=C\C/C=C\C/C=C\C/C=C\CCCC(=O)OCC [AMR101, ethyl eicosapentaenoate]
AA, Plasma, Mean (SD) change from Baseline (1 g daily, Day 14): −9.7 (22.20) μg/g | AA, RBC, Mean (SD) change from Baseline (1 g daily, Day 14): −8.1 (21.95) μg/g | DGLA, Plasma, mean (SD) change from Baseline (1 g daily, Day 14): −10.4 (10.90) μg/g | DGLA, RBC, mean (SD) change from Baseline (1 g daily, Day 14): −2.7 (3.82) μg/g | DHA, Plasma, Mean (SD) change from Baseline (1 g daily, Day 14): −6.4 (13.30) μg/g | DHA, RBC, Mean (SD) change from Baseline (1 g daily, Day 14): −4.6 (9.76) μg/g | AA, Plasma, Mean (SD) change from Baseline (1 g daily, Day 28): −11.3 (28.13) μg/g | AA, RBC, Mean (SD) change from Baseline (1 g daily, Day 28): −17.0 (20.69) μg/g | DGLA, Plasma, mean (SD) change from Baseline (1 g daily, Day 28): −10.6 (10.23) μg/g | DGLA, RBC, mean (SD) change from Baseline (1 g daily, Day 28): −3.8 (3.31) μg/g | DHA, Plasma, Mean (SD) change from Baseline (1 g daily, Day 28): −6.6 (15.53) μg/g | DHA, RBC, Mean (SD) change from Baseline (1 g daily, Day 28): −6.4 (11.57) μg/g | AA, Plasma, Mean (SD) change from Baseline (1 g daily, Day 42): −8.7 (31.35) μg/g | AA, RBC, Mean (SD) change from Baseline (1 g daily, Day 42): −14.2 (27.69) μg/g | DGLA, Plasma, mean (SD) change from Baseline (1 g daily, Day 42): −9.4 (9.41) μg/g | DGLA, RBC, mean (SD) change from Baseline (1 g daily, Day 42): −3.5 (4.51) μg/g | DHA, Plasma, Mean (SD) change from Baseline (1 g daily, Day 42): −5.4 (18.17) μg/g | DHA, RBC, Mean (SD) change from Baseline (1 g daily, Day 42): −7.0 (12.20) μg/g | EPA/AA, Plasma, mean (SD) change from Baseline (1 g daily, Day 42): 0.3 | AA, Plasma, LS Mean, 1 g versus 4 g (1 g versus 4 g): 4.2 µg/g | AA, RBC, LS Mean, 1 g versus 4 g (1 g versus 4 g): 8.4 µg/g | DGLA, Plasma, LS mean, 1 g versus 4 g (1 g versus 4 g): 3.7 µg/g | DGLA, RBC, LS mean, 1 g versus 4 g (1 g versus 4 g): 1.5 µg/g | DHA, Plasma, LS mean, 1 g versus 4 g (1 g versus 4 g): -0.8 µg/g | DHA, RBC, LS mean, 1 g versus 4 g (1 g versus 4 g): 1.0 µg/g | AA, Plasma, Mean (SD) change from Baseline (2 g daily, Day 14): −13.9 (22.13) μg/g | AA, RBC, Mean (SD) change from Baseline (2 g daily, Day 14): −3.1 (25.84) μg/g | DGLA, Plasma, mean (SD) change from Baseline (2 g daily, Day 14): −14.1 (6.88) μg/g | DGLA, RBC, mean (SD) change from Baseline (2 g daily, Day 14): −2.6 (3.54) μg/g | DHA, Plasma, Mean (SD) change from Baseline (2 g daily, Day 14): −5.4 (14.29) μg/g | DHA, RBC, Mean (SD) change from Baseline (2 g daily, Day 14): −2.0 (9.46) μg/g | AA, Plasma, Mean (SD) change from Baseline (2 g daily, Day 28): 21.6 (28.32) μg/g | AA, RBC, Mean (SD) change from Baseline (2 g daily, Day 28): −14.1 (26.89) μg/g | DGLA, Plasma, mean (SD) change from Baseline (2 g daily, Day 28): −16.2 (9.88) μg/g | DGLA, RBC, mean (SD) change from Baseline (2 g daily, Day 28): −4.5 (3.58) μg/g | DHA, Plasma, Mean (SD) change from Baseline (2 g daily, Day 28): −8.1 (15.82) μg/g | DHA, RBC, Mean (SD) change from Baseline (2 g daily, Day 28): −6.2 (9.34) μg/g | AA, Plasma, Mean (SD) change from Baseline (2 g daily, Day 42): −27.3 (26.76) μg/g | AA, RBC, Mean (SD) change from Baseline (2 g daily, Day 42): −18.8 (25.62) μg/g | DGLA, Plasma, mean (SD) change from Baseline (2 g daily, Day 42): −17.3 (9.92) μg/g | DGLA, RBC, mean (SD) change from Baseline (2 g daily, Day 42): −5.3 (3.65) μg/g | DHA, Plasma, Mean (SD) change from Baseline (2 g daily, Day 42): −6.0 (16.69) μg/g | DHA, RBC, Mean (SD) change from Baseline (2 g daily, Day 42): −6.3 (9.42) μg/g | AA, Plasma, LS Mean, 2 g versus 4 g (2 g versus 4 g): 15.6 µg/g | AA, RBC, LS Mean, 2 g versus 4 g (2 g versus 4 g): 9.8 µg/g | DGLA, Plasma, LS mean, 2 g versus 4 g (2 g versus 4 g): 2.5 µg/g | DGLA, RBC, LS mean, 2 g versus 4 g (2 g versus 4 g): 1.5 µg/g | DHA, Plasma, LS mean, 2 g versus 4 g (2 g versus 4 g): 1.5 µg/g | DHA, RBC, LS mean, 2 g versus 4 g (2 g versus 4 g): 1.0 µg/g | AA, Plasma, Mean (SD) change from Baseline (4 g daily, Day 14): −27.2 (28.89) μg/g | AA, RBC, Mean (SD) change from Baseline (4 g daily, Day 14): −15.7 (26.76) μg/g | DGLA, Plasma, mean (SD) change from Baseline (4 g daily, Day 14): −22.9 (9.00) μg/g | DGLA, RBC, mean (SD) change from Baseline (4 g daily, Day 14): −5.3 (4.10) μg/g | DHA, Plasma, Mean (SD) change from Baseline (4 g daily, Day 14): −10.3 (13.35) μg/g | DHA, RBC, Mean (SD) change from Baseline (4 g daily, Day 14): −6.9 (9.13) μg/g | AA, Plasma, Mean (SD) change from Baseline (4 g daily, Day 28): −43.7 (32.24) μg/g | AA, RBC, Mean (SD) change from Baseline (4 g daily, Day 28): −22.8 (29.56) μg/g | DGLA, Plasma, mean (SD) change from Baseline (4 g daily, Day 28): −24.2 (10.73) μg/g | DGLA, RBC, mean (SD) change from Baseline (4 g daily, Day 28): −7.1 (4.63) μg/g | DHA, Plasma, Mean (SD) change from Baseline (4 g daily, Day 28): −13.5 (14.10) μg/g | DHA, RBC, Mean (SD) change from Baseline (4 g daily, Day 28): −8.7 (11.63) μg/g | AA, Plasma, Mean (SD) change from Baseline (4 g daily, Day 42): −48.3 (22.20) μg/g | AA, RBC, Mean (SD) change from Baseline (4 g daily, Day 42): −34.4 (31.44) μg/g | DGLA, Plasma, mean (SD) change from Baseline (4 g daily, Day 42): −22.5 (10.87) μg/g | DGLA, RBC, mean (SD) change from Baseline (4 g daily, Day 42): −8.0 (4.98) μg/g | DHA, Plasma, Mean (SD) change from Baseline (4 g daily, Day 42): −13.8 (15.31) μg/g | DHA, RBC, Mean (SD) change from Baseline (4 g daily, Day 42): −13.8 (13.76) μg/g | EPA, DPAn-3 and EPA/AA ratio values, change from baseline to Day 42 (plasma and RBC, 1, 2 and 4 g treatment groups): increased substantially
